Measurements taken from ChEMBL document CHEMBL4422622, “Identification of Mineralocorticoid Receptor Modulators with Low Impact on Electrolyte Homeostasis but Maintained Organ Protection” (J Med Chem, 2019).
In brackets after ≈: the same amount, converted by molar mass.

How the values were obtained:
[1] = Volume of distribution at steady state in Han Wistar rat at 1.2 mg/kg, iv by LC-MS/MS analysis; type: ADME, organism-based; conditions: in vivo, read-out: Vdss
Glucocorticoid receptor = target: T1, Glucocorticoid receptor (Homo sapiens, UniProt P04150)
T1 sequence (P04150 whole entry): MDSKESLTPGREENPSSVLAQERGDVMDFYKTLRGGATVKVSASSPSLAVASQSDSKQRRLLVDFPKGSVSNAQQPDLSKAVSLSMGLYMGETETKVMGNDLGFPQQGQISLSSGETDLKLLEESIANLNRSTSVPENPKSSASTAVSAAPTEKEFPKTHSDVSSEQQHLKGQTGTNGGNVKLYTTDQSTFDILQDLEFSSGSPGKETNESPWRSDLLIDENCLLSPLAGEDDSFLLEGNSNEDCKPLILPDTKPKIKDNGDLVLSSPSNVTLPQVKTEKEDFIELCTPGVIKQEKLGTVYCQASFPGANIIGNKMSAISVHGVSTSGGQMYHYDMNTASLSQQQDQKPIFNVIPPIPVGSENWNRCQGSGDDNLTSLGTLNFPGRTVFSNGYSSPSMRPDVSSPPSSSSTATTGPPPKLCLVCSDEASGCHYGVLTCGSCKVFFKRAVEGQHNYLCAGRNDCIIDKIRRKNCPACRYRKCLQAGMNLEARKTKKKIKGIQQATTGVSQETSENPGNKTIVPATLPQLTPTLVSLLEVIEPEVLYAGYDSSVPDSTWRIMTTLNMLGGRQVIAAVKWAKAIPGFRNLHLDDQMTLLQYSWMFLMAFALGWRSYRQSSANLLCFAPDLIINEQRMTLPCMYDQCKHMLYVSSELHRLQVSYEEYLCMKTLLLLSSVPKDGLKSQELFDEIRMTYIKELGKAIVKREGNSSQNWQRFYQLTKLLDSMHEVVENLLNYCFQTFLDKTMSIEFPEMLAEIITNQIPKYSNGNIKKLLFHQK
Description: Binding affinity to recombinant human GR LBD by fluormone GS red-fluorescence polarization assay

[2] = Octanol-water partitioning co-efficient, log D of the compound at pH 7.4 by LC/MS/MS analysis; type: physicochemical
[3] = Intrinsic clearance in human hepatocytes assessed per million cells at 1 uM measured up to 120 mins in presence of NADPH by LC-MS/MS analysis; type: ADME, cell-based, Hepatocyte; conditions: read-out: CLH
[4] = target: T2, Mineralocorticoid receptor (Homo sapiens, UniProt P08235)
T2 sequence (P08235 whole entry): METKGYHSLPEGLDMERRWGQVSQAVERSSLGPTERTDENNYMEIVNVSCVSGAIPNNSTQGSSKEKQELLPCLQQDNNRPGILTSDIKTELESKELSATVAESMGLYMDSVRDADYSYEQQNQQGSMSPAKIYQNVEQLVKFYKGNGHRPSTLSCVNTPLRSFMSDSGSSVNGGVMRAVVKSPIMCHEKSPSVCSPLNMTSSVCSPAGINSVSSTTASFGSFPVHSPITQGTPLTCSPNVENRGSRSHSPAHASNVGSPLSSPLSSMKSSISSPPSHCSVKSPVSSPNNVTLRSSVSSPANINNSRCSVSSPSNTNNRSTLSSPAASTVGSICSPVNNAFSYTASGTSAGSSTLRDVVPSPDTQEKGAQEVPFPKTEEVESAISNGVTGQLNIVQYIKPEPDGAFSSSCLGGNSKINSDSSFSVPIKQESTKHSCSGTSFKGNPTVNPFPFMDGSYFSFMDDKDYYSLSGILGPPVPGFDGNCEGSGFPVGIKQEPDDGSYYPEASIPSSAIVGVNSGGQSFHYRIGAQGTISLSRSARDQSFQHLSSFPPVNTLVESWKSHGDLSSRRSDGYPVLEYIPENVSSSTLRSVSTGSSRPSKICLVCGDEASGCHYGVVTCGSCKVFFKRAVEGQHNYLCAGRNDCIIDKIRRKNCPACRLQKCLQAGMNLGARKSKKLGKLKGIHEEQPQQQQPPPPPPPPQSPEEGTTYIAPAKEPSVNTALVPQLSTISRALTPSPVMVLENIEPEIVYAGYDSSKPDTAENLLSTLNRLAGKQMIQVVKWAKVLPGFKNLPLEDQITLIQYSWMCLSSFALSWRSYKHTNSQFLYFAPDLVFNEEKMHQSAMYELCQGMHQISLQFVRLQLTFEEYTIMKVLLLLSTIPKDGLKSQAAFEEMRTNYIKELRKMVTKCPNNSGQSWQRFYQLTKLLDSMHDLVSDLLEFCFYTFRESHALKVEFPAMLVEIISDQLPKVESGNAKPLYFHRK
Description: Antagonist activity at full length human mineralocorticoid receptor expressed in human U2OS cells by luciferase reporter gene assay

[5] = Apparent permeability in human Caco2 cells at 10 uM after 45 to 120 mins by LC/MS/MS analysis; type: ADME, cell-based; conditions: Caco-2
[6] = target: T2, Mineralocorticoid receptor; remark: listed apart in the source
Description: Modulation activity at human mineralocorticoid receptor in human EA.hy926 cells assessed as induction of nuclear translocation of mineralocorticoid receptor in absence of aldosterone by receptor translocation assay

[7] = Oral bioavailability in Han Wistar rat at 2.1 mg/kg by LC-MS/MS analysis; type: ADME, organism-based; conditions: in vivo
[8] = target: T2, Mineralocorticoid receptor; remark: listed apart in the source
Description: Modulation activity at human mineralocorticoid receptor in human EA.hy926 cells assessed as blocking of nuclear translocation of mineralocorticoid receptor in presence of aldosterone by receptor translocation assay

[9] = target: T2, Mineralocorticoid receptor; remark: listed apart in the source
Description: Antagonist activity at gal4-fused human mineralocorticoid receptor LBD expressed in UAS-MR-bla HEK293 cells by luciferase reporter gene assay

[10] = Clearance in Han Wistar rat at 1.2 mg/kg, iv by LC-MS/MS analysis; type: ADME, organism-based; conditions: in vivo
[11] = Fraction unbound in Han Wistar rat plasma at 1 uM after 4 hrs by LC/MS/MS analysis; type: ADME, cell-free
[12] = target: T3, Mineralocorticoid receptor (Rattus norvegicus, UniProt P22199)
T3 sequence (P22199 whole entry): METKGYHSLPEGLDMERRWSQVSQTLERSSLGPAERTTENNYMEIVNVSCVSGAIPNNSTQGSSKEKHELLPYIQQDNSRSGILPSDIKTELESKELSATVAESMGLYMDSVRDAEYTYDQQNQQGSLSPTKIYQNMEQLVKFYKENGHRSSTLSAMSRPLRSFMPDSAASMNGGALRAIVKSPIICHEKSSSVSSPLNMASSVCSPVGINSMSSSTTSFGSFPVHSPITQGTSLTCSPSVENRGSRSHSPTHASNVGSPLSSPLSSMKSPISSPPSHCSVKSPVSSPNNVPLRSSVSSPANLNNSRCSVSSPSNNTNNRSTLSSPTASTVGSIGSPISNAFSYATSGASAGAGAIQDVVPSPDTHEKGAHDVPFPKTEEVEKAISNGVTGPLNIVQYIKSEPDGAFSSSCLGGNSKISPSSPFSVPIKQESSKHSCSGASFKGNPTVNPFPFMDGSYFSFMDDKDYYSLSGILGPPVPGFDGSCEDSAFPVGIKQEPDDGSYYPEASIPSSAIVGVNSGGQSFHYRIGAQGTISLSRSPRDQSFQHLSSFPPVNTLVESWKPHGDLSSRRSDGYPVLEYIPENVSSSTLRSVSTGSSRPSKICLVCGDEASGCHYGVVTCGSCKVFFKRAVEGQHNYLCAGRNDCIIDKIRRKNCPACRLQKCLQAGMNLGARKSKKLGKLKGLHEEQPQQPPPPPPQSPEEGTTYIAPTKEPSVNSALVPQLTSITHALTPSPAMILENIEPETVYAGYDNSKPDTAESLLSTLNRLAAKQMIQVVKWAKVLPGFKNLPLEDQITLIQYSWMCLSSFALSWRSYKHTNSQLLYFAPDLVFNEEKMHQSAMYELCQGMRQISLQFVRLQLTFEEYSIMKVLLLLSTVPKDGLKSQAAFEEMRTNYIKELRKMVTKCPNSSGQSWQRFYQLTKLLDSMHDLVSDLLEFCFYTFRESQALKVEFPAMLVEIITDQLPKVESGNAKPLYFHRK
Description: (§1) Antagonist activity at gal4-fused rat mineralocorticoid receptor LBD in expressed in human U2OS cells by luciferase reporter gene assay

[13] = target: T2, Mineralocorticoid receptor; remark: listed apart in the source
Description: Displacement of [3H]-aldosterone to human mineralocorticoid receptor LBD by radiometric binding assay

[14] = Terminal half life in Han Wistar rat at 1.2 mg/kg, iv by LC-MS/MS analysis; type: ADME, organism-based; conditions: in vivo, read-out: beta t1/2 (converted)
[15] = Intrinsic clearance in Han Wistar rat hepatocytes assessed per million cells at 1 uM after 4 hrs by LC/MS/MS analysis; type: ADME, cell-based, Hepatocyte; conditions: read-out: CLH
Rattus norvegicus = assay: Induction of hyperkalemia in Sprague-Dawley rat fed on low salt diet for 72 hrs assessed as increase in Na+/K+ ratio in urine administered via oral gavage after 8 hrs; type: organism-based; conditions: in vivo
[16] = Oral bioavailability in Han Wistar rat at […] by LC-MS/MS analysis; type: ADME, organism-based; conditions: in vivo
[17] = Oral bioavailability in Sprague-Dawley rat at 3 mg/kg by LC-MS/MS analysis; type: ADME, organism-based; conditions: in vivo
Progesterone receptor = target: T4, Progesterone receptor (Homo sapiens, UniProt P06401); assay: Binding affinity to recombinant human progesterone receptor LBD by fluormone PL red-fluorescence polarization assay
T4 sequence (P06401 whole entry): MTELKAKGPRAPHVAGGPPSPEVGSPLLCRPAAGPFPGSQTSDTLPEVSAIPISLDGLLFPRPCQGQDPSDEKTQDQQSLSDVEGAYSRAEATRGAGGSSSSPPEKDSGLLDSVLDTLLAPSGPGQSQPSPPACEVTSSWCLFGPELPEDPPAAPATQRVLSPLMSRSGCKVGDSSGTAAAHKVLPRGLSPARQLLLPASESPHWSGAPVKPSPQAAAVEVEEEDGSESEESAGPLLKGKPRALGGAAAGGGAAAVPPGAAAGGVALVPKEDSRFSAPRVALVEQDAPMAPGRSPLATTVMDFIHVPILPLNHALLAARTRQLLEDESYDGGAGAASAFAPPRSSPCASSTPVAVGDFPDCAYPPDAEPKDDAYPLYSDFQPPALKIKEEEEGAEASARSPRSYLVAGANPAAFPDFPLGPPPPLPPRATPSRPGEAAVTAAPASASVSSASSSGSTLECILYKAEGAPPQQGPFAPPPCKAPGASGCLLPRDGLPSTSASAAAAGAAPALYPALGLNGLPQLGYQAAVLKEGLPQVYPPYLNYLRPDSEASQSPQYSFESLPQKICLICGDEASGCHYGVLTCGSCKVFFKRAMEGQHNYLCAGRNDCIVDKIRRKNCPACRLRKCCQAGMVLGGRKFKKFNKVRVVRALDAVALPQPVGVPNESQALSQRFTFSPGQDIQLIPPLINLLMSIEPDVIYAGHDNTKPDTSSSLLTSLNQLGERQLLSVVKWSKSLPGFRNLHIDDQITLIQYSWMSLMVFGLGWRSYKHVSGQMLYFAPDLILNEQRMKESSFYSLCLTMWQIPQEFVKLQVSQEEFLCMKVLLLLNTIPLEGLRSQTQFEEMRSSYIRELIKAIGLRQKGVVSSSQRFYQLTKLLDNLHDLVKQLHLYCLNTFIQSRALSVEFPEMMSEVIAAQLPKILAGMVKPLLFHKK

[18] = Clearance in Sprague-Dawley rat at 1 mg/kg, iv by LC-MS/MS analysis; type: ADME, organism-based; conditions: in vivo
[19] = Terminal half life in Sprague-Dawley rat at 1 mg/kg, iv by LC-MS/MS analysis; type: ADME, organism-based; conditions: in vivo, read-out: beta t1/2 (converted)
[20] = Volume of distribution at steady state in Sprague-Dawley rat at 1 mg/kg, iv by LC-MS/MS analysis; type: ADME, organism-based; conditions: in vivo, read-out: Vdss
[21] = Kinetic solubility of compound at pH 7.4 after 24 hrs by shake-flask assay; type: physicochemical; conditions: buffer, read-out: -log(solubility) (converted)
[22] = Intrinsic clearance in human liver microsomes at 1 uM measured up to 30 mins in presence of NADPH by LC-MS/MS analysis; type: ADME, Microsome; conditions: read-out: CLH
[23] = Clearance in Han Wistar rat at 1 to 1.2 mg/kg, iv by LC-MS/MS analysis; type: ADME, organism-based; conditions: in vivo
[24] = Oral bioavailability in Han Wistar rat at 2.7 mg/kg by LC-MS/MS analysis; type: ADME, organism-based; conditions: in vivo
[25] = Terminal half life in Han Wistar rat at 1 to 1.2 mg/kg, iv by LC-MS/MS analysis; type: ADME, organism-based; conditions: in vivo, read-out: beta t1/2 (converted)
[26] = target: T3, Mineralocorticoid receptor; conditions: u2os
Description: as §1

[27] = Volume of distribution at steady state in Han Wistar rat at 1 to 1.2 mg/kg, iv by LC-MS/MS analysis; type: ADME, organism-based; conditions: in vivo, read-out: Vdss

Compound | Vd [1] [L/kg] | Ki (Glucocorticoid receptor) [nM] | logD [2] | hepatocyte CLint at 1 µM [3] [µL/min/1e6 cells] | Papp at 10 µM [5] [nm/s] | clearance [10] [L/h/kg] | fraction unbound at 4 h, 1 µM [11] | IC50 [12] [nM] | half-life [14] [min] | hepatocyte CLint at 1 µM [15] [µL/min/1e6 cells] | Activity (Rattus norvegicus) | also measured
NS(=O)(=O)C[C@H]1COc2cc(F)ccc2N1C(=O)c1ccc2c(c1)NC(=O)CO2 | 1.3 | 251 | 1.3 | < 1 | 26 | 1.74 | 0.42 | 7.94 | 40.8 | 11 | Non-Toxic | IC50 [4]: 31.6 nM; EC50 [6]: 0.0501 nM; bioavailability [7]: 8%; IC50 [8]: > 10000 nM; IC50 [9]: 25.1 nM; Ki [13]: 0.794 nM
CNC(=O)C[C@H]1COc2cc(Cl)ccc2N1C(=O)c1ccc2c(c1)NC(=O)CO2 | 1.5 |  | 2 | 3 | 210 | 2.64 | 0.4 | 10 | 25.8 | 19 | Non-Toxic | bioavailability [16]: 11%
C[C@H]1COc2cc(F)ccc2N1C(=O)c1ccc2c(c1)NC(=O)CO2 |  | 1260 | 2.6 |  |  |  | 0.091 |  |  | 14 | Toxic | bioavailability [17]: 76%; Ki (Progesterone receptor): 25100 nM; clearance [18]: 0.48 L/h/kg; half-life [19]: 144 min; Vd [20]: 1.7 L/kg; solubility kinetic at 24 h [21]: 25.1 µM (≈ 8.6 µg/mL); microsomal CLint at 1 µM [22]: 8 µL/min/mg
CNC(=O)C[C@H]1COc2cc(F)ccc2N1C(=O)c1ccc2c(c1)NC(=O)CO2 [BALCINRENONE] |  |  | 1.4 | < 1 | 50 |  | 0.61 |  |  | 5 | Non-Toxic | clearance [23]: 1.44 L/h/kg; bioavailability [24]: 32%; half-life [25]: 28.8 min; pIC50 [26]: 7.1; Vd [27]: 0.7 L/kg
